Test results taken from patent US12441716B2, “Compositions and methods for increasing muscle mass and oxidative metabolism” (The Regents of the University of California, priority 2019, dated 2025).

Key:
[1] = system: endogenous Myosin light chain-2 (Myl2) expression in C2C12 cells; assay: Myl2 expression in C2C12 cells, RT-PCR normalized to GAPDH; type: cell-based; conditions: for Myl2 Relative expression/Gapdh at 2.5 μM: C2C12 cells, relative to GAPDH house-keeping control gene
Experimental: Bioactivity data of AMBMP analogs 1-6, 17, 18, and 25. Dose dependent effect of AMBMP analogs 1-6, 17, 18, and 25 on endogenous Myosin light chain-2 (Myl2) expression in C2C12 cells is shown in FIG. 16 A.
Effect of 2.5 μM AMBMP analog 1-6, 8, 17, 21, 25, 38, 39, and 40 on Myl2 expression relative to GAPDH (house-keeping control gene) in C2C12 cells is shown in Table 1. Myl2 is a marker of CaMKIIβ activity.
AMBMP analog 40 was tested in C2C12 myogenic cells for its ability to induce expression of Myl2. C2C12 cells were treated with AMBMP or AMBMP analog 40 for 48 hrs (concentrations are indicated on the graph); DMSO was used as a negative control. Expression of Myl2 was assessed by RT-PCR and normalized to GAPDH as a house-keeping control gene.

[2] = log P (partition coefficient between organic and aqueous phase); type: physicochemical
Source text: It has been determined that compounds having a chemical structure of Formula I and/or Formula VII, or a pharmaceutically acceptable salt or solvate thereof, can increase muscle mass and muscle function. These chemicals can be effective in treating muscular dystrophy, such as limb girdle muscular dystrophy type 2A/R1/D1. Not to be bound by theory, it is believed that these compounds may provide their biological effect by over-riding the CAMKII signaling block by activating CaMKII. Accordingly, these can increase muscle size, mitochondrial complex I and II activity, expression of genes that comprise the slow fiber phenotype and running performance. Embodiments of the current disclosure is directed to compositions and methods of use for compounds having a chemical structure of Formula I and/or Formula VII, or a pharmaceutically acceptable salt or solvate thereof, that show similar or higher activity on CAMKII signaling as of AMBMP, but are less toxic and/or more soluble than AMBMP (Formula VI). […] One or more compounds having a chemical structure of Formula I and/or Formula VII, can have a EC50 potency of <1 uM on endogenous myosin light chain 2 (Myl2) promoter in C2C12 cells. The compounds can have a solubility >10 uM in water at standard temperature and pressure. […] Toxicity can be measured as a dose dependent effect of the compounds on cell death of C2C12 cells.

CaMKIIβ [3] = molecular target: T1, CaMKIIβ (Mus musculus, UniProt P28652); assay: CaMKIIβ activation in mouse skeletal muscles after injection, western blot with anti-phospho CaMKIIβ antibody; type: in vivo; conditions: mice, 10 mg/kg intraperitoneally; muscles collected 2, 4 and 6 hrs after injection; DMSO control
T1 construct: from tissue; host or cells: tissue of treated C3KO and WT mice
T1 sequence (P28652 whole entry): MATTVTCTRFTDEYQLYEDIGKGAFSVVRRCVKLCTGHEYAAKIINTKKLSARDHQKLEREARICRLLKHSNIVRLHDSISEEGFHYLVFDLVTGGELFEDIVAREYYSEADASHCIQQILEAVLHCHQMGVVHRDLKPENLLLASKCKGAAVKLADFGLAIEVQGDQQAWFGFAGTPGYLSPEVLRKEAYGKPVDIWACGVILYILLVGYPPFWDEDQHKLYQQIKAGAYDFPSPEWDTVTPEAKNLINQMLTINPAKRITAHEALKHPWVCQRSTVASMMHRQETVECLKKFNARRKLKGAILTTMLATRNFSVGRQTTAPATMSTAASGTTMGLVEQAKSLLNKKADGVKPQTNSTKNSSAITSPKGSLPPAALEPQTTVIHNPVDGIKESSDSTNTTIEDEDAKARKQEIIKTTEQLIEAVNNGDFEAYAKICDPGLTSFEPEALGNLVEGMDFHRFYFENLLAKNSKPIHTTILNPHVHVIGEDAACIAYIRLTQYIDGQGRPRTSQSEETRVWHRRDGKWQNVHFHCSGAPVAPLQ
Experimental: Mice were injected intraperitoneally with 10 mg/kg of AMBMP analog 3. Skeletal muscles were collected at 2, 4 and 6 hrs after injection. Mice injected with DMSO were used as a control group.

C2C12 myogenic cells = assay: Tolerance of C2C12 myogenic cells to compound; type: cell-based; conditions: data not shown
C3KO mice [4] = assay: Muscle fiber cross-sectional area in treated C3KO mice; type: in vivo; conditions: 7.5 mg/kg/day for 14 days, i.p. or subQ injection
Experimental: (§1) Average cross-sectional area (CSA) measured in muscle cross sections after staining for fiber type. […] A) C3KO mice i.p. injected with AMBMP hydrochloride (7.5 mg/kg/day) for 14 days. B) C3KO mice treated AMBMP hydrochloride (7.5 mg/kg/day) for 14 days by subcutaneous (subQ) injection.

C3KO mice [5] = assay: Mitochondrial function / mitochondrial content (NADH staining) in muscles of treated C3KO mice; type: in vivo
Experimental: as §1
One set of C3KO mice were i.p. injected with AMBMP hydrochloride (7.5 mg/kg/day) for 14 days, another set of C3KO mice were i.p. injected with AMBMP hydrochloride (15 mg/kg/day) for 14 days and a control set of C3KO mice were not treated with AMBMP. Percent of total fibers with high mitochondrial content and intermediate mitochondrial content increased with AMBMP treatment in a dose dependent manner, and percent of total fibers with low mitochondrial content decreased with AMBMP treatment in a dose dependent manner (FIG. 12A). […] Quantification of NADH staining on plantaris muscles from AMBMP-treated mice (either 7.5 or 15 mg/kg, for 2 weeks (wks)) shown as a ratio of FOG:FG fibers. *p<0.05.

C3KO mice [6] = assay: Exercise performance after endurance training in C3KO mice; type: in vivo; conditions: i.p. 7.5 mg/kg/day for 14 days, 3-week endurance training
Source text: Shown in FIG. 13, AMBMP treatment leads to improved exercise performance. Mice were subjected to endurance training over a 3-week period while being treated. Exercise performance was compared between pre and post exercise condition. Wild type (WT) mice were not treated with AMBMP.

CaMKIIβ [7] = molecular target: T1, CaMKIIβ; assay: CaMKIIβ activity in mice treated for 2 weeks; type: in vivo; conditions: i.p. 7.5 mg/kg/day for 2 weeks
Source text: (§2) Shown in FIG. 14, C3KO mice treated with AMBMP have normalized CaMKIIβ activity, but AKT or AMPK signaling are not affected.

AKT = AKT signaling in treated C3KO mice; type: in vivo; conditions: i.p. 7.5 mg/kg/day for 2 weeks
Source text: as §2

AMPK = AMPK signaling in treated C3KO mice; type: in vivo; conditions: i.p. 7.5 mg/kg/day for 2 weeks
Source text: as §2

Capn3−/− muscles = assay: Percent slow myosin heavy chain positive fibers in soleus of calpainopathy mice; type: in vivo; conditions: daily for 2 wks at 30 mg/kg subQ

Nc1nc(NCc2ccc3c(c2)OCO3)cc(-c2cccc(O)c2)n1 [AMBMP Analog 3, 3-(2-amino-6-((benzo[d][1,3]dioxol-5-ylmethyl)amino)pyrimidin-4-yl)phenol]
Myl2 Relative expression/Gapdh at 2.5 μM [1]: 0.4
logP [2]: 2.47
phospho-CaMKIIβ (P-CaMK) in skeletal muscles (CaMKIIβ [3]): CaMKIIβ activation

CCOc1cccc(-c2cc(NCc3ccc4c(c3)OCO4)nc(N)n2)c1 [AMBMP Analog 4]
Myl2 Relative expression/Gapdh at 2.5 μM [1]: 2

CCCOc1cccc(-c2cc(NCc3ccc4c(c3)OCO4)nc(N)n2)c1 [AMBMP Analog 5]
Myl2 Relative expression/Gapdh at 2.5 μM [1]: 0.6

CC(C)(C)Oc1cccc(-c2cc(NCc3ccc4c(c3)OCO4)nc(N)n2)c1 [AMBMP Analog 6]
Myl2 Relative expression/Gapdh at 2.5 μM [1]: 1.2

Nc1nc(NCc2ccc3c(c2)OCO3)cc(-c2ccc(OC(F)(F)F)cc2)n1 [AMBMP Analog 17]
Myl2 Relative expression/Gapdh at 2.5 μM [1]: 0.2

COc1cc(O)cc(-c2cc(NCc3ccc4c(c3)OCO4)nc(N)n2)c1 [AMBMP Analog 40, 3-(2-amino-6-((benzo[d][1,3]dioxol-5-ylmethyl)amino)pyrimidin-4-yl)-5-methoxyphenol]
Myl2 Relative expression/Gapdh at 2.5 μM [1]: 1.2
increase of Myl2 expression ([1]; C2C12 myogenic cells treated 48 hrs (1.25 μM, 5 μM), RT-PCR normalized to GAPDH, DMSO negative control): 2.5-2.9 fold
tolerance by the cells compared to AMBMP (C2C12 myogenic cells): better tolerated

COc1cccc(-c2cc(NCc3ccc4c(c3)OCO4)nc(N)n2)c1.Cl [AMBMP hydrochloride]
cross-sectional area of slow fibers (C3KO mice [4]): significantly increased
cross-sectional area, both fiber types (C3KO mice [4]): increase
mitochondrial function compared to control (C3KO mice [5]; i.p. 7.5 mg/kg/day for 14 days): improved mitochondrial function
mitochondrial content (C3KO mice [5]; i.p. 7.5 or 15 mg/kg/day for 14 days, plantaris muscles): increased mitochondrial content in a dose dependent manner
exercise performance pre vs post endurance training (C3KO mice [6]): show a training effect
CaMKIIβ activity over untreated control (CaMKIIβ [7]; C3KO mice): increased CaMKIIβ activity
CaMKIIβ activity over untreated control (CaMKIIβ [7]; WT mice): increased CaMKIIβ activity
AKT signaling (AKT): without impacting
AMPK signaling (AMPK): without impacting

COc1cccc(-c2cc(NCc3ccc4c(c3)OCO4)nc(N)n2)c1 [AMBMP]
Myl2 Relative expression/Gapdh at 2.5 μM [1]: 1.4
% slow myosin heavy chain positive fibers in soleus (Capn3−/− muscles): Statistically significant shift
